Measured values as given in the supplement of paper PMC10307832.

What was measured:
Assay in all cases: relative viability (nuclei count vs DMSO), 5 days (fraction); higher = more cells survive
[1] = compound: C[C@@]1(C(=O)Nc2ccc(F)nc2)CCCN1c1nc(Nc2cc(C3CC3)n[nH]2)c2cccn2n1 + CC(=O)Nc1cccc(-n2c(=O)n(C3CC3)c(=O)c3c(Nc4ccc(I)cc4F)n(C)c(=O)c(C)c32)c1 [Trametinib] (partner 0.02 µM)
Outline: (§1)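 Relative viability equals treated-well nuclei counts divided by vehicle-well nuclei counts. Counts came from 4× images of lung cancer cell lines grown in 1536-well plates for 5 days after pin-tool dosing on the day after seeding. Dosing used one drug alone or a fixed anchor-drug dose plus five library-drug doses (not always all listed) in √10 steps, and values are medians of duplicate plates.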

[2] = compound: C[C@@]1(C(=O)Nc2ccc(F)nc2)CCCN1c1nc(Nc2cc(C3CC3)n[nH]2)c2cccn2n1 + O=C(CCCCCCC(=O)Nc1ccccc1)NO [Vorinostat] (partner 1 µM)
Outline: as §1

[3] = compound: CC1(C)CNc2cc(NC(=O)c3cccnc3NCc3ccncc3)ccc21 [Motesanib] + N=C(N)NC(=N)NCCc1ccccc1 [Phenformin] (partner 250 µM)
Outline: as §1

[4] = compound: C[C@@]1(C(=O)Nc2ccc(F)nc2)CCCN1c1nc(Nc2cc(C3CC3)n[nH]2)c2cccn2n1 + CS(=O)(=O)N1CCN(Cc2cc3nc(-c4cccc5[nH]ncc45)nc(N4CCOCC4)c3s2)CC1 [Pictilisib] (partner 1 µM)
Outline: as §1

| Cell Line | relative viability ([1]; first compound 0.04 µM) | relative viability ([1]; first compound 0.1265 µM) | relative viability ([1]; first compound 0.4 µM) | relative viability ([1]; first compound 1.265 µM) | relative viability ([2]; first compound 0.04 µM) | relative viability ([2]; first compound 0.1265 µM) | relative viability ([2]; first compound 0.4 µM) | relative viability ([2]; first compound 1.265 µM) | relative viability ([3]; first compound 0.01 µM) | relative viability ([3]; first compound 0.03162 µM) | relative viability ([3]; first compound 0.1 µM) | relative viability ([3]; first compound 0.3162 µM) | relative viability ([3]; first compound 1 µM) | relative viability ([4]; first compound 0.04 µM) | relative viability ([4]; first compound 0.1265 µM) | relative viability ([4]; first compound 0.4 µM) | relative viability ([4]; first compound 1.265 µM) |
| --- | --- | --- | --- | --- | --- | --- | --- | --- | --- | --- | --- | --- | --- | --- | --- | --- | --- |
| NCI-H322M | 0.435 | 0.428 | 0.334 | 0.347 | 0.794 | 0.688 | 0.638 | 0.64 | 0.748 | 0.823 | 0.806 | 0.798 | 0.791 | 0.479 | 0.376 | 0.371 | 0.507 |
| NCI-H358 | 0.129 | 0.106 | 0.112 | 0.101 | 0.451 | 0.35 | 0.203 | 0.156 | 0.384 | 0.414 | 0.331 | 0.418 | 0.468 | 0.259 | 0.237 | 0.173 | 0.277 |
| NCI-H441 | 0.23 | 0.164 | 0.21 | 0.211 | 0.55 | 0.3 | 0.397 | 0.511 | 0.895 | 0.873 | 0.845 | 0.913 | 0.822 | 0.455 | 0.337 | 0.36 | 0.375 |
| NCI-H460 | 0.159 | 0.0315 | 0.0726 | 0.0967 | 0.829 | 0.431 | 0.555 | 0.302 | 0.478 | 0.455 | 0.54 | 0.549 | 0.527 | 0.299 | 0.202 | 0.184 | 0.236 |
| NCI-H520 | 0.753 | 0.571 | 0.523 | 0.591 | 0.668 | 0.668 | 0.685 | 0.489 | 0.538 | 0.671 | 0.468 | 0.587 | 0.499 | 0.317 | 0.298 | 0.284 | 0.361 |
| NCI-H522 | 0.692 | 0.696 | 0.595 | 0.586 | 0.864 | 0.809 | 0.69 | 0.875 | 0.644 | 0.634 | 0.581 | 0.582 | 0.667 |  |  |  |  |
| NCI-H1299 |  |  |  |  |  |  |  |  |  |  |  |  |  | 0.752 | 0.844 | 0.669 | 0.286 |
| NCI-H1563 |  |  |  |  |  |  |  |  | 0.617 | 0.598 | 0.697 | 0.715 | 0.655 | 0.625 | 0.614 | 0.596 | 0.598 |
| NCI-H1648 | 0.391 | 0.285 | 0.282 | 0.39 | 0.363 | 0.332 | 0.221 | 0.443 |  |  |  |  |  |  |  |  |  |
| NCI-H1703 |  |  |  |  |  |  |  |  |  |  |  |  |  | 0.25 | 0.224 | 0.227 | 0.213 |
| NCI-H1792 | 0.343 | 0.188 | 0.145 | 0.211 |  |  |  |  | 0.202 |  | 0.367 | 0.258 | 0.243 | 0.257 | 0.266 | 0.201 | 0.318 |
| NCI-H2342 | 0.668 | 0.813 | 0.605 | 0.7 | 0.803 | 0.708 | 0.696 | 0.582 | 0.448 | 0.588 | 0.807 | 0.562 | 0.662 |  |  |  |  |
| SW 900 | 0.764 | 0.805 | 0.808 | 0.572 | 0.557 | 0.426 | 0.432 | 0.468 | 0.58 | 0.599 | 0.552 | 0.621 | 0.739 |  |  |  |  |
